Assay results reported in patent US20200017449A1, “HYDANTOINS THAT MODULATE BACE-MEDIATED APP PROCESSING” (Buck Institute for Research on Aging, priority 2013, published 2020).
Where two headings read alike, the source gives them in different places.

Columns and labels:
[1] = target: T1, BACE1 (Homo sapiens, UniProt P56817); experiment: BACE1 P5-P5′ fluorescence substrate assay (APP-BACE1 IC50); format: biochemical; settings: Table 1; read-out: BACE IC50
T1 construct: purchased R&D 931-AS-050
Procedure: In one illustrative embodiment, an MBP-C125 APP695 wt fusion protein can be used as one of the substrates and the second substrate can be the commercially available P5-P5′ fluorescence substrate.
Briefly, 0.01 units of BACE1 were incubated for 1 h at room temperature with a BACE inhibitor, then the substrate was added to each well and the fluorescence was read immediately and every 30 min for 2 h. Activity was determine by dividing the fluorescence at a specific [BACE inhibitor] by the fluorescence at [BACE inhibitor]=0 μM, the % activity was plotted vs log[BACE inhibitor] to determine the APP-BACE1 using GraphPad Prism 5 (FIG. 6A)

[2] = target: T2, TRX-eAPP575-624 (Homo sapiens, UniProt P05067); experiment: SPR (Biacore) binding to ectodomain of APP
T2 construct: residues 575-624 of the APP ectodomain; made in house
Procedure: The binding affinity of the compounds for the ectodomain of APP was determined using SPR. […] The eAPP was crosslinked linked to the CM5 Biacore chips (GE Healthcare).
FC1 served as a reference cell following a mock immobilization with buffer alone. For all cells, the flow rate was 10 μl per min. The chip was blocked with 1M ethanolamine (pH 8.5). […] Binding traces were recorded for each dilution with a binding phase of 60 seconds and a dissociation phase of 240 seconds. Each cycle was performed at 20° C. with a constant flow rate of 20 μl/min. An additional 240 seconds of buffer flow at 60 μl per min across the cells was applied as a regeneration phase to facilitate complete dissociation of the compound from the protein. The sensograms were obtained by subtraction of the reference and buffer signals using the Biacore T100 Evaluation software. The binding curves were modeled with the PRISM (Graphpad Inc).

[3] = system: Aβ1-42 in SH-SY5Y neuroblastoma cells; experiment: Aβ1-42 in SH-SY5Y cells (ELISA); format: cell-based, human; settings: FIG. 5
Procedure: SH-SY5Y neuroblastoma cells were seeded at 50,000 cells/well in a 96 wells plate for 24 h. Then their medium was changed for fresh medium supplemented with desired concentration of the hydantoin compound (e.g. compound 3). After 24 h, 20 μl of the medium was added to 2 μl of the complete protease inhibitor with 1 μM EDTA and kept at 4° C. until analysis using the ELISA assay below.
ELISA kits from Invitrogen were also used to quantify Aβ1-42 (KHB3544) in duplicate. For the Aβ1-42 ultrasensitive ELISA, samples were diluted 1:2 (50 μl CSF plus 50 μl kit-provided standard diluent buffer). Assays were performed according to manufacturer's instructions. In short, standards and samples were added to a plate pre-coated with a monoclonal capture antibody specific for the amino terminus of Hu Aβ. The samples were co-incubated with a rabbit detection antibody (Ab) specific for the carboxy terminus of the Aβ species being assayed for 3 hr at room temperature overnight at 4°(Aβ1-42) with gentle rocking. After washing, bound rabbit Ab was detected using a horseradish peroxidase-labeled anti-rabbit secondary Ab. After washing again, bound HRP-anti rabbit Ab was detected colorimetrically (Spectramax 190, Molecular Devices) by the addition of a substrate solution. […]

[4] = system: Aβ42; experiment: Aβ lowering in brain uptake animals; format: in vivo; settings: NTg mice
Procedure: Compound 2 and other hydantoins were produced (see, e.g., compounds 1-5 pharmacokinetic evaluation of these hydantoins was determined in brain uptake assays using NTg mice (see, e.g., Table 1). It was also determined that Compound 1 lowered Aβ42 in the same animals at 5 mpk, while compound 3 lowered Aβ at 1 mpk.

[5] = Table 1, SPR, read-out: APP binding Kd

T1 sequence (P56817 46-501): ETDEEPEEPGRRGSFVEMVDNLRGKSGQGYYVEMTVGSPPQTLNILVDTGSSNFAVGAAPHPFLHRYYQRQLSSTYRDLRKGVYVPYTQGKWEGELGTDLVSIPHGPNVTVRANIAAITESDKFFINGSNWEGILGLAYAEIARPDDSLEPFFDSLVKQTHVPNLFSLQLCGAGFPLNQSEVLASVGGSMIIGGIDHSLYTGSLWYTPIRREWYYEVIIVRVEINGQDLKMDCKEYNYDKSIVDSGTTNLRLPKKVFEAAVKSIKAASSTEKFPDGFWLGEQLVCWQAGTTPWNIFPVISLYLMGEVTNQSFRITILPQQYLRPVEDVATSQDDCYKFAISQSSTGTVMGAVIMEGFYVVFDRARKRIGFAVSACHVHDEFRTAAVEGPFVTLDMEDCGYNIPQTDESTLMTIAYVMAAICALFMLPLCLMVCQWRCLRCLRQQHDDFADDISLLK
T2 sequence (P05067 650-699): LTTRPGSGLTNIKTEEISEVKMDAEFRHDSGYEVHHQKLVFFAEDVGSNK

Row | Structure (SMILES) | IC50 [1] [nM] | Kd [2, 5] [nM] | further results
1 | CN1C(=O)C(c2ccc(OC(F)F)cc2)(c2cc(F)cc(F)c2)N=C1N (stereo not drawn) [FAH-2, 2-amino-4-(4-(difluoromethoxy)phenyl)-4-(3,5-difluorophenyl)-1-methyl-1H-imidazol-5(4H)-one] | 2000 | 8000 | –
2 | Cc1cc(C2(c3cc(F)cc(F)c3)N=C(N)N(C)C2=O)ccc1OC(F)F (stereo not drawn) [FAH-3, 2-amino-4-(4-(difluoromethoxy)-3-methylphenyl)-4-(3,5-difluorophenyl)-1-methyl-1H-imidazol-5(4H)-one] | 520 | – | inhibition of Aβ production [3]: inhibition of Aβ production; lowering of Aβ in vivo ([4]; 1 mpk): lowered Aβ; binding to eAPP (qualitative) ([2]; SPR / BiaCore, FIG. 4): binding to eAPP575-624
3 | CN1C(=O)C(c2cc(F)cc(F)c2)(c2cccc(OC(F)F)c2)N=C1N (stereo not drawn) [FAH-4, 2-amino-4-(3-(difluoromethoxy)phenyl)-4-(3,5-difluorophenyl)-1-methyl-1H-imidazol-5(4H)-one] | 2100 | – | –
4 | Cc1cc(C2(c3cccc(F)c3)N=C(N)N(C)C2=O)ccc1OC(F)F (stereo not drawn) [FAH-17, 2-amino-4-(4-(difluoromethoxy)-3-methylphenyl)-4-(3-fluorophenyl)-1-methyl-1H-imidazol-5(4H)-one] | – | < 1000 | Kd ([2]; Table 5, Secondary Screen, read-out: APP Kd): < 1000 nM
5 | CN1C(=O)C(c2ccccc2)(c2cc(F)cc(F)c2)N=C1N (stereo not drawn) [FAH-1] | 3000 | – | lowering of Aβ42 in vivo ([4]; 5 mpk): lowered Aβ42
6 | Cc1cc(C)cc(C2(c3cc(F)cc(F)c3)N=C(N)N(C)C2=O)c1 (stereo not drawn) [FAH-5, 2-amino-4-(3,5-difluorophenyl)-4-(3,5-dimethylphenyl)-1-methyl-1H-imidazol-5(4H)-one] | 5000 | – | –
